Experimental data published in patent publication US8076367B2, “Benzimidazolylidene propane-1,3-dione derivative or salt thereof” (Astellas Pharma Inc., priority 2004, dated 2011).

Tests used:
human GnRH receptor = molecular target: T1, human GnRH receptor (Homo sapiens, UniProt P30968); assay: Test on GnRH receptor antagonism (125I-D-Trp6-LHRH binding inhibition); settings: inhibition of 125I-D-Trp6-LHRH binding to human GnRH receptor
T1 sequence (P30968 1-328): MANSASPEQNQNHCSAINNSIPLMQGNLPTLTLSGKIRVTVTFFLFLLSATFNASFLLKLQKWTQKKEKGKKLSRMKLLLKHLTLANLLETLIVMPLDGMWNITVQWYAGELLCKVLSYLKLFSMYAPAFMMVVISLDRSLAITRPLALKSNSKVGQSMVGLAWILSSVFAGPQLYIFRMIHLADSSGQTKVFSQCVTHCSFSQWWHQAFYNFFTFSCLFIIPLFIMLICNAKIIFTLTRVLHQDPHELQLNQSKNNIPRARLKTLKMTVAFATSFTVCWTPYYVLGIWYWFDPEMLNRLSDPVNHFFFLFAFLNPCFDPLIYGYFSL
Description: GnRH receptor antagonism test method described on p. 56 of the Patent Reference 1.

[1] = Measurement of blood concentration of a compound by ex vivo binding assay; settings: Wistar male rat, oral 10 mg/kg in 0.5% MC, serum 2 hours after administration, read-out: Blood compound concentration (B) 2 hour value
Procedure: Each compound to be tested was dissolved or suspended in 0.5% methyl cellulose (MC) solution and was orally administered to Wistar male rat of 9 weeks of age (SLC Japan) at a dose of 10 mg/kg. Blood sample was collected after 2 hours of the administration to obtain serum.
Each serum sample was mixed with the same volume of methanol to remove protein and optionally diluted with an assay buffer, and then the ^125I-D-Trp^6-LHRH binding inhibition ratio was measured in the same manner as in Test Example 1. Using a separately prepared calibration curve on the concentration-binding inhibition of compounds to be tested, blood concentration of each compound (μM) was calculated from the binding inhibition ratio.

Cytochrome P450 (CYP3A4) = Cytochrome P450 (CYP3A4) (Homo sapiens, UniProt P08684); assay: Cytochrome P450 (CYP3A4) enzyme inhibition, Inhibition Test II (preincubation); assay type: in vitro ADME; settings: 30 minutes preincubation with human liver microsome and NADPH, then midazolam 20 minutes; compared with Ex 40, Ex 251, Ex 239 of Patent Reference 1
Cytochrome P450 (CYP3A4), sequence (P08684 whole entry): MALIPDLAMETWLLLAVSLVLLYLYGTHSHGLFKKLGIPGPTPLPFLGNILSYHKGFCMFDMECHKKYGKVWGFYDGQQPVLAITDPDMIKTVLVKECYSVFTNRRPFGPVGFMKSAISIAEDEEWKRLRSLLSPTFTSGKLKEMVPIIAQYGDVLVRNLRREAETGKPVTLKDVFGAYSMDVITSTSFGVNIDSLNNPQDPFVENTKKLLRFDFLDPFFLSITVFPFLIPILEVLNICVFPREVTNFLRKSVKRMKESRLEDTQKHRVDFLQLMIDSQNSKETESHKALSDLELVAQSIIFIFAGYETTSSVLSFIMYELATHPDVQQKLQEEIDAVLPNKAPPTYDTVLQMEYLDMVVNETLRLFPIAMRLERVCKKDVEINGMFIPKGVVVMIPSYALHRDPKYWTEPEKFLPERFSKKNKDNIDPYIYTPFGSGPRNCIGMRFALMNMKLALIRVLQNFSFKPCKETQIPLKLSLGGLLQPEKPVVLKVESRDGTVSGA
Procedure: Thereafter, midazolam as the substrate was added thereto and incubated at 37° C. for 20 minutes.

[2] = Test on metabolic stability in human liver microsome; assay type: in vitro ADME; settings: human liver microsome 0.2 mg protein/ml, 37° C. 15 minutes; compared with Ex 40, Ex 251, Ex 239 of Patent Reference 1

| IC50 (human GnRH receptor) [nM] | concentration at 2 h [1] [nM] | Inhibitory activity II (CYP3A4) (Cytochrome P450 (CYP3A4)) | metabolic stability in human liver microsome (in vitro clearance) [2] | melting point [°C] | SMILES |
| --- | --- | --- | --- | --- | --- |
| 0.082 | 710 |  |  |  | O=C(C(C(=O)c1cccc(C(O)CO)c1)=C1Nc2ccccc2N1)c1cc(F)cc(Cl)c1 (stereo not drawn) [Ex 2-3] |
| 0.17 | 1310 | superior actions | superior metabolic stability | 139 to 140 | O=C(C(C(=O)c1cc(F)c(F)c(F)c1)=C1Nc2ccccc2N1)c1cccc(C(O)CO)c1 (stereo not drawn) [Ex 2-4] |
| 0.1 | 820 |  |  |  | O=C(C(C(=O)c1cccc(C(O)CO)c1)=C1Nc2ccc(F)cc2N1)c1cc(F)cc(F)c1 (stereo not drawn) [Ex 2-5] |
| 0.19 | 1650 |  |  |  | O=C(C(C(=O)c1cccc(C(O)CO)c1)=C1Nc2ccccc2N1)c1cccc(F)c1 (stereo not drawn) [Ex 2-7] |
| 0.15 | 920 |  |  |  | O=C(C(C(=O)c1cccc(C(O)CO)c1)=C1Nc2cc(F)c(Cl)cc2N1)c1cc(F)cc(F)c1 (stereo not drawn) [Ex 2-12] |
| 0.2 | 1140 |  |  |  | O=C(C(C(=O)c1cc(C(O)CO)ccc1F)=C1Nc2ccccc2N1)c1cc(F)cc(F)c1 (stereo not drawn) [Ex 2-20] |
| 0.22 | 2160 |  |  | 127 to 129 | O=C(C(C(=O)c1cc(F)cc(F)c1F)=C1Nc2ccccc2N1)c1cccc(C(O)CO)c1 (stereo not drawn) [Ex 2-48] |
| 0.12 | 880 |  |  |  | O=C(C(C(=O)c1cccc(C(O)CO)c1)=C1Nc2ccccc2N1)c1cccc(Cl)c1 (stereo not drawn) [Ex 2-50] |
| 0.093 | 1360 | superior actions | superior metabolic stability | 190 to 191 | O=C(C(C(=O)c1cccc([C@@H](O)CO)c1)=C1Nc2ccccc2N1)c1cccc(F)c1 [Ex 4-1, 2-(1,3-dihydro-2H-benzimidazol-2-ylidene)-1-{3-[(1R)-1,2-dihydroxyethyl]phenyl}-3-(3-fluorophenyl)propane-1,3-dione] |
| 0.1 | 1040 | superior actions | superior metabolic stability | 197 to 198 | O=C(C(C(=O)c1cccc([C@@H](O)CO)c1F)=C1Nc2ccccc2N1)c1cccc(F)c1 [Ex 4-4] |
| 0.12 | 3740 | superior actions | superior metabolic stability | 228 to 229 | Cc1c(C(=O)C(C(=O)c2cc(F)cc(F)c2)=C2Nc3ccccc3N2)cccc1[C@@H](O)CO [Ex 4-5] |
| 0.081 | 1790 |  |  | 132 to 133 | CCCCc1c(C(=O)C(C(=O)c2cccc(F)c2)=C2Nc3ccccc3N2)cccc1[C@@H](O)CO [Ex 4-8] |
| 0.076 | 1440 |  |  | 134 to 136 | O=C(C(C(=O)c1cccc([C@@H](O)CO)c1Cl)=C1Nc2ccccc2N1)c1cccc(Cl)c1 [Ex 4-15] |
| 0.24 | 2170 | superior actions | superior metabolic stability | 125 to 127 | O=C(C(C(=O)c1cccc([C@@H](O)CO)c1Cl)=C1Nc2ccccc2N1)c1cccc(F)c1 [Ex 4-21] |
| 0.13 | 2170 | superior actions | superior metabolic stability | 147 to 149 | O=C(C(C(=O)c1ccc(F)c([C@@H](O)CO)c1)=C1Nc2ccccc2N1)c1cc(F)cc(F)c1 [Ex 4-22] |
| 0.18 | 1110 |  |  |  | Cc1c(C(=O)C(C(=O)c2cccc(Cl)c2)=C2Nc3ccccc3N2)cccc1[C@@H](O)CO [Ex 4-23] |
| 0.14 | 1390 | superior actions | superior metabolic stability |  | Cc1cccc(C(=O)C(C(=O)c2cccc([C@@H](O)CO)c2C)=C2Nc3ccccc3N2)c1 [Ex 4-25] |
| 0.19 | 6440 | superior actions | superior metabolic stability | 215 to 217 | Cc1c(C(=O)C(C(=O)c2ccccc2F)=C2Nc3ccccc3N2)cccc1[C@@H](O)CO [Ex 4-29] |
| 0.1 | 1500 | superior actions | superior metabolic stability | 126 to 129 | O=C(C(C(=O)c1cccc([C@@H](O)CO)c1Cl)=C1Nc2ccccc2N1)c1cc(F)cc(F)c1 [Ex 4-30] |
| 0.12 | 670 |  |  |  | Cc1cccc(C(=O)C(C(=O)c2cccc([C@@H](O)CO)c2Cl)=C2Nc3ccccc3N2)c1 [Ex 4-32] |
| 0.12 | 1590 |  |  |  | O=C(C(C(=O)c1cccc([C@@H](O)CO)c1F)=C1Nc2ccccc2N1)c1cc(F)cc(F)c1 [Ex 4-33] |
|  |  |  |  | 189 to 190 | O=C(C(C(=O)c1cccc([C@@H](O)CO)c1)=C1Nc2ccccc2N1)c1cc(F)cc(F)c1 [Ex 13-2, 1-(3,5-difluorophenyl)-2-(1,3-dihydro-2H-benzimidazol-2-ylidene)-3-{3-[(1R)-1,2-dihydroxyethyl]phenyl}propane-1,3-dione] |
